Values belong to the molecule of their own block, whether it stands above or below them.
Assays:
h-FPR1 = target: T1, h-FPR1 (Homo sapiens, UniProt P21462); assay: Ca2+ mobilization in FPR1-HL60 transfected cells; assay type: cell-based
T1 sequence (P21462 1-350): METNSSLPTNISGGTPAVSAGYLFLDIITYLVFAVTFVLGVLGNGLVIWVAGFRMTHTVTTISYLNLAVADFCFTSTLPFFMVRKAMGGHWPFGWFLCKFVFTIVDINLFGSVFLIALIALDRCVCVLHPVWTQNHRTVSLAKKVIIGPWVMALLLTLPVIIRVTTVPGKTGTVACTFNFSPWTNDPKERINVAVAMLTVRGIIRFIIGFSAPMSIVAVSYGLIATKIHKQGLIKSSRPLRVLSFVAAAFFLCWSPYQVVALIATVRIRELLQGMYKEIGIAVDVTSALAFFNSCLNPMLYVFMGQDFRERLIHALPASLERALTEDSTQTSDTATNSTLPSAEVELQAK

h-FPR2 [1] = target: T2, h-FPR2 (Homo sapiens, UniProt P25090); assay: Ca2+ mobilization in FPR2-HL60 transfected cells; assay type: cell-based; conditions: for EC50, μM FPR2-HL60 / Agonist character (full/partial) at FPR2: Ca2+ mobilization; for EC50, μM FPR2-HL60: FPR2-HL60 cells
T2 sequence (P25090 1-351): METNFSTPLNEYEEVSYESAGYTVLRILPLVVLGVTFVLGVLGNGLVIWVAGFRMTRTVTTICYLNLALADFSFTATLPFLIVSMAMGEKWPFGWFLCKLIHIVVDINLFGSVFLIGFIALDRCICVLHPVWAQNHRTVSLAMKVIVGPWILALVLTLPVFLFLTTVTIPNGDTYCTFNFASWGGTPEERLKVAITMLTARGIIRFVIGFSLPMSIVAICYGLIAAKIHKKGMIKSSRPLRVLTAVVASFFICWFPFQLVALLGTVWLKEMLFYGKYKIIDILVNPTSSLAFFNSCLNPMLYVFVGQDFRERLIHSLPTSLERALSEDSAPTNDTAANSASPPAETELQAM

[2] = tested on: rat primary microglial cells; assay: MTT cell viability test in rat primary microglial cell cultures; assay type: cell-based; conditions: for Effect on metabolic activity (MTT) / Effect on conversion of MTT dye: basal conditions; for Effect on metabolic activity (MTT): 0.5–10 μM, 24 h; for Effect on conversion of MTT dye: 50 μM
[3] = tested on: rat primary microglial cells; assay: Lactate dehydrogenase; assay type: cell-based; conditions: for Effect on LPS-induced cell death (LDH release): LPS-stimulated, pre-treatment 1 μM and 5 μM; for Effect on LDH release (cell death) / Effect on LDH release: basal conditions; for Effect on LDH release (cell death): 50 μM; for Effect on LDH release: 0.5–10 μM, 24 h
[4] = tested on: IL-1β production in rat microglial cell cultures; assay: IL-1β ELISA in rat microglial cell cultures; assay type: cell-based; conditions: for Effect on LPS-evoked IL-1β production / Block by WRW4 of effect on IL-1β: LPS-stimulated; for Effect on LPS-evoked IL-1β production: 0.5 to 10 μM; for Block by WRW4 of effect on IL-1β: pre-treatment with FPR2 antagonist WRW4; for Effect on IL-1β production: basal conditions, agonists 0.5 μM-10 μM
[5] = tested on: TNF-α production in rat microglial cell cultures; assay: TNF-α ELISA in rat microglial cell cultures; assay type: cell-based; conditions: for Effect on LPS-evoked TNF-α production / Block by WRW4 of effect on TNF-α: LPS-stimulated; for Effect on LPS-evoked TNF-α production: 0.5 to 10 μM; for Effect on TNF-α production: basal conditions, agonists 0.5 μM-10 μM; for Block by WRW4 of effect on TNF-α: pre-treatment with FPR2 antagonist WRW4
[6] = tested on: NO production in rat microglial cell cultures; assay: NO release assay; assay type: cell-based; conditions: for Effect on LPS-increased NO level: LPS-stimulated, (S)-10 at 5 μM and 10 μM; for Effect on NO level: basal conditions
hCMEC/D3 cells = assay: Bidirectional transport across hCMEC/D3 cell monolayer; assay type: in vitro ADME, human; conditions: 100 μM, 2 h; for PappAB: apical-to-basolateral transport; for PappBA: basolateral-to-apical transport
human neutrophils = assay: Ca2+ mobilization in human neutrophils; assay type: cell-based
h-FPR2 [7] = target: T2, h-FPR2; conditions: previously characterized; ref [33]; cited from earlier work
[8] = Stability assays in rat liver microsomes; assay type: in vitro ADME; conditions: pH 7.4, Metabolic stability (% remaining), percent of parent compound remaining after 30-min incubation
[9] = Bidirectional transport across hCMEC/D3 cell monolayer; assay type: in vitro ADME, human; conditions: human

SMILES: COc1ccc(NC(=O)N[C@H](Cc2ccc(C#N)cc2)C(=O)NCC2(c3ccc(F)c(Cl)c3)CC2)cc1 [(R)-16, (R)-N-[[1-(3-Chloro-4-fluorophenyl)cyclopropyl]methyl]-3-(4-cyanophenyl)-2-[3-(4-methoxyphenyl)ureido]propanamide]
Agonist character (full/partial) at FPR1 (h-FPR1): potent FPR1 full agonists

SMILES: O=C(Nc1ccc([N+](=O)[O-])cc1)N[C@H](Cc1cccnc1)C(=O)NCC1(c2ccccc2)CC1 [(R)-11, (R)-2-[3-(4-Nitrophenyl)ureido]-N-[(1-phenylcyclopropyl)methyl]-3-(3-pyridinyl)-propanamide]
Effect on metabolic activity (MTT) in LPS-stimulated cells [2]: no effect was observed on metabolic activity
Effect on metabolic activity (MTT) [2]: None of the compounds induced significant effects
Effect on LPS-induced cell death (LDH release) [3]: effectively blocked LPS-induced cell death processes
Effect on LDH release (cell death) [3]: significant increase in death processes
Effect on LDH release [3]: None of the compounds induced significant effects
Effect on LPS-evoked IL-1β production [4]: effectively decrease LPS-evoked cytokine production
Block by WRW4 of effect on IL-1β [4]: able to block the effect
Effect on IL-1β production [4]: did not induce any change
Agonist character (full/partial) at FPR2 (h-FPR2 [1]): partial agonists
Effect on LPS-evoked TNF-α production [5]: effectively decrease LPS-evoked cytokine production
Effect on TNF-α production [5]: did not induce any change
Effect on LPS-increased NO level [6]: no effect was observed
Effect on NO level [6]: did not induce any change in NO level
PappAB (hCMEC/D3 cells): 119245 nm/s
PappBA (hCMEC/D3 cells): 437544 nm/s
EC50, μM Neutrophils (human neutrophils): submicromolar range

SMILES: COc1ccc(NC(=O)N[C@@H](Cc2ccc(C#N)cc2)C(=O)NCC2(c3ccc(F)c(Cl)c3)CC2)cc1 [(S)-16, (S)-N-[[1-(3-Chloro-4-fluorophenyl)cyclopropyl]methyl]-3-(4-cyanophenyl)-2-[3-(4-methoxyphenyl)ureido]propanamide]
Agonist character (full/partial) at FPR1 (h-FPR1): potent FPR1 full agonists

SMILES: O=C(Nc1ccc([N+](=O)[O-])cc1)N[C@H](Cc1c[nH]c2ccccc12)C(=O)NCC1(c2ccccc2)CC1 [(R)-6]
Interaction with FPR2 (intrinsic activity) (h-FPR2 [7]): weak FPR2 antagonist

SMILES: N#Cc1ccc(C[C@H](NC(=O)Nc2ccc(F)cc2)C(=O)NCC2(c3ccc(F)c(Cl)c3)CC2)cc1 [(S)-17, (S)-3-(4-Cyanophenyl)-N-[[1-(3-chloro-4-fluorophenyl)cyclopropyl]methyl]-2-[3-(4-fluorophenyl)ureido]propanamide]
Effect on metabolic activity (MTT) in LPS-stimulated cells [2]: no effect was observed on metabolic activity
Effect on conversion of MTT dye [2]: decreased the conversion of MTT dye
Effect on metabolic activity (MTT) [2]: None of the compounds induced significant effects
Effect on LPS-induced cell death (LDH release) [3]: effectively blocked LPS-induced cell death processes
Effect on LDH release (cell death) [3]: significant increase in death processes
Effect on LDH release [3]: None of the compounds induced significant effects
remaining at 0.5 h, 10 μM [8]: > 20%
Effect on LPS-evoked IL-1β production [4]: effectively decrease LPS-evoked cytokine production
Block by WRW4 of effect on IL-1β [4]: able to block the effect
Effect on IL-1β production [4]: did not induce any change
Effect on LPS-evoked TNF-α production [5]: effectively decrease LPS-evoked cytokine production
Block by WRW4 of effect on TNF-α [5]: able to block the effect
Effect on TNF-α production [5]: did not induce any change
Effect on LPS-increased NO level [6]: no effect was observed
Effect on NO level [6]: did not induce any change in NO level
efflux ratio at 2 h, 100 μM [9]: < 3
PappAB (hCMEC/D3 cells): 145521 nm/s
PappBA (hCMEC/D3 cells): 375981 nm/s
EC50, μM Neutrophils (human neutrophils): submicromolar range

SMILES: N#Cc1ccc(C[C@H](NC(=O)Nc2ccc([N+](=O)[O-])cc2)C(=O)NCC2(c3ccccc3)CC2)cc1 [(S)-10, (S)-3-(4-Cyanophenyl)-2-[3-(4-nitrophenyl)ureido]-N-[(1-phenylcyclopropyl)methyl]propanamide]
Effect on metabolic activity (MTT) in LPS-stimulated cells [2]: no effect was observed on metabolic activity
Effect on conversion of MTT dye [2]: decreased the conversion of MTT dye
Effect on metabolic activity (MTT) [2]: None of the compounds induced significant effects
Effect on LPS-induced cell death (LDH release) [3]: effectively blocked LPS-induced cell death processes
Effect on LDH release (cell death) [3]: significant increase in death processes
Effect on LDH release [3]: None of the compounds induced significant effects
Effect on LPS-evoked IL-1β production [4]: effectively decrease LPS-evoked cytokine production
Block by WRW4 of effect on IL-1β [4]: did not abolish the observed effect
Effect on IL-1β production [4]: did not induce any change
Agonist character (full/partial) at FPR2 (h-FPR2 [1]): full agonists
Increase in agonist potency compared to (S)-6 (h-FPR2 [1]; FPR2, (S)-10 compared to (S)-6): 10 fold
Effect on LPS-evoked TNF-α production [5]: effectively decrease LPS-evoked cytokine production
Block by WRW4 of effect on TNF-α [5]: did not abolish the observed effect
Effect on TNF-α production [5]: did not induce any change
Effect on LPS-increased NO level [6]: significantly attenuated
Effect on NO level [6]: did not induce any change in NO level
PappBA (hCMEC/D3 cells): 253033 nm/s

The next lines start with the values.

EC50, μM FPR2-HL60 (h-FPR2 [1]): not able to induce Ca^2+ mobilization
SMILES: O=C(Nc1ccccc1)N[C@H](Cc1c[nH]c2ccccc12)C(=O)NCC1(c2ccccc2)CC1 [(R)-9, (R)-3-(1H-Indol-3-yl)-N-[(1-phenylcyclopropyl)methyl]-2-[3-(phenyl)ureido]propanamide]

Agonist character (full/partial) at FPR2 (h-FPR2 [1]): partial agonists
SMILES: O=C(Nc1ccc(F)cc1)N[C@@H](Cc1c[nH]c2ccccc12)C(=O)NCC1(c2ccccc2)CC1 [(S)-8, (S)-2-[3-(4-Fluorophenyl)ureido]-3-(1H-indol-3-yl)-N-[(1-phenylcyclopropyl)methyl]propanamide]

remaining at 0.5 h, 10 μM [8]: > 20%
SMILES: N#Cc1ccc(C[C@@H](NC(=O)Nc2ccc(F)cc2)C(=O)NCC2(c3ccc(F)c(Cl)c3)CC2)cc1 [(R)-17, (R)-3-(4-Cyanophenyl)-N-[[1-(3-chloro-4-fluorophenyl)cyclopropyl]methyl]-2-[3-(4-fluorophenyl)ureido]propanamide]

remaining at 0.5 h, 10 μM [8]: 4%
EC50, μM FPR2-HL60 (h-FPR2 [1]): not able to induce Ca^2+ mobilization
SMILES: O=C(Nc1ccc(F)cc1)N[C@H](Cc1c[nH]c2ccccc12)C(=O)NCC1(c2ccccc2)CC1 [(R)-8, (R)-2-[3-(4-Fluorophenyl)ureido]-3-(1H-indol-3-yl)-N-[(1-phenylcyclopropyl)methyl]propanamide]

Agonist character (full/partial) at FPR2 (h-FPR2 [1]): partial agonists
SMILES: O=C(Nc1ccccc1)N[C@@H](Cc1c[nH]c2ccccc12)C(=O)NCC1(c2ccccc2)CC1 [(S)-9, (S)-3-(1H-Indol-3-yl)-N-[(1-phenylcyclopropyl)methyl]-2-[3-(phenyl)ureido]propanamide]

Agonist character (full/partial) at FPR2 (h-FPR2 [1]): full agonists
SMILES: N#Cc1ccc(C[C@@H](NC(=O)Nc2ccc([N+](=O)[O-])cc2)C(=O)NCC2(c3ccccc3)CC2)cc1 [(R)-10, (R)-3-(4-Cyanophenyl)-2-[3-(4-nitrophenyl)ureido]-N-[(1-phenylcyclopropyl)methyl]propanamide]

Agonist character (full/partial) at FPR2 (h-FPR2 [1]): partial agonists
EC50, μM FPR1-HL60 (h-FPR1; FPR1-HL60 cells): low micromolar range
SMILES: O=C(Nc1ccc([N+](=O)[O-])cc1)N[C@@H](Cc1cccnc1)C(=O)NCC1(c2ccccc2)CC1 [(S)-11, (S)-2-[3-(4-Nitrophenyl)ureido]-N-[(1-phenylcyclopropyl)methyl]-3-(3-pyridinyl)-propanamide]

Agonist character (full/partial) at FPR2 (h-FPR2 [1]): full agonist
Agonist character (full/partial) at FPR1 (h-FPR1): full agonist
SMILES: COc1ccc(NC(=O)N[C@@H](Cc2c[nH]c3ccccc23)C(=O)NCC2(c3ccccc3)CC2)cc1 [(S)-7, (S)-3-(1H-Indol-3-yl)-2-[3-(4-methoxyphenyl)ureido]-N-[(1-phenylcyclopropyl)methyl] propanamide]

remaining at 0.5 h, 10 μM [8]: > 20%
SMILES: Cc1ccc(C2(CNC(=O)[C@@H](Cc3ccc(C#N)cc3)NC(=O)Nc3ccc(F)cc3)CC2)cc1F [(R)-15, (R)-3-(4-Cyanophenyl)-N-[[1-(3-fluoro-4-methylphenyl)cyclopropyl]methyl]-2-[3-(4-fluorophenyl)ureido]propanamide]

Source: publication PMC5693244 (European journal of medicinal chemistry, 2017)
